pIC50: −log10 of the molar value.
Key:
U251 cells [1] = test: Efficacy on intracranially implanted glioma tumor model; assay type: in vivo, Athymic male nude mice; details: 40 mg/kg bid OS, FIG. 3
Experimental: Animals that underwent surgical procedures were anesthetized following one of the above mentioned protocols, i.e. Ketamin, 80-100 mg/kg i.p.+Xilazin: 10 mg/kg i.p.; Isofluorane: 1.5-2%. Athymic male nude mice, aged 6-8 weeks were anesthetized, placed under the stereotaxic apparatus and gently fixed with ear bars and into the head holder. Skin of the head was cut longitudinally (parallel to ears) and skull of the mouse discovered. With the X and Y axis controller of the apparatus, bregma (interception between median sagittal and anterior coronal sutures to perform injection into the cerebral nuclei) and lambda (interception between median sagittal suture and posterior coronal suture to perform injection into the cerebellum) were identified as point 0. The following coordinates were set in the apparatus and the point of injection identified. With a microdrill a small hole was done in the desired point. Cells were aspirated with the Hamilton syringe (usually […]) just prior injection (a short mix of cells before aspiration was performed to avoid precipitation of cells). By pointing to the hole, Z axis was fixed to 0 and syringe gently inserted into the brain until reaching the right coordinate (−3.0 mm depth). U251 cells were injected at the speed of 1 μl per minute. […] After the end of the surgery mice were monitored for recovery until complete wakening.

U251 human glioma cells = assay type: in vivo
Experimental: Balb, Nu/Nu male mice, from Harlan (Italy), were maintained in cages with paper filter cover, food and bedding sterilized and water acidified. 2.5×10^6 U251 human glioma cells (from the American Type Culture Collection) were injected subcutaneously in athymic mice. […] Tumor growth and body weight were measured every 3 days. Tumor growth was assessed by caliper. The two diameters were recorded and the tumor weight was calculated according the following formula: length (mm)×width^2/2. Toxicity was evaluated on the basis of body weight reduction.

U87MG [2] = test: Analysis of BrdU incorporation (FACS); assay type: cell-based; details: 24 hour-treatment
Experimental: (§1) SF-268, SF-295, SF-539 and U251 cell lines were cultured in RPMI 1640 added with 10% FCS and 2 mM glutamine and U-87MG cell line was cultured in EMEM added with 10% FCS, […] and 1% NEAA. For all the experiments cells were seeded at the density of 1×10^4/cm^2, the day after treatment with the compound for the prescribed duration and then collected at the reported times.
(§2) BrdU (5-bromo-2′ deoxyuridine) was added to the cell culture at the final concentration of 30 μM for the last hour of a 24 hour-treatment. Cells were washed with PBS, fixed in 70% ethanol and stored at −20° C. At the moment of the analysis cells were centrifuged, washed with 1% FCS in PBS and DNA denaturated with HCl 2N for 20 minutes. After a wash in Na2B4O7 0.1M pH 8.5, cells were incubated with a solution of 0.5% Tween20 in PBS+1% FCS for 15 minutes and then centrifuged. The pellets were resuspended in 150 μl of a 1:10 diluted unconjugated anti-BrdU monoclonal antibody (Becton Dickinson) and incubated for 1 hour at room temperature. After a wash in PBS, the incubation with 0.5% Tween20 was repeated; then the secondary antibody was added (1:50 diluted FITC-conjugated goat anti mouse immunoglobulin (Jackson Lab.)). After one hour at room temperature the cells were rinsed again, counterstained with propidium iodide (2 μg/ml+12.5 μg/ml DNAse-free RNAse) overnight, then analyzed by FACS.

SF295 [3] = test: Analysis of BrdU incorporation (FACS); assay type: cell-based; details: SF295, 24 hour-treatment
Experimental: as §1, §2

SF268 [4] = test: Analysis of BrdU incorporation (FACS); assay type: cell-based; details: SF268, 24 hour-treatment
Experimental: as §1, §2

SF539 [5] = test: Analysis of BrdU incorporation (FACS); assay type: cell-based; details: SF539, 24 hour-treatment
Experimental: as §1, §2

[6] = system: all the tested glioma cells; test: Inhibition of cell proliferation, summary over cell lines; assay type: cell-based; details: 72 hours, read-out: IC50 (inhibit proliferation), range over cell lines
Experimental: as §1
(§3) Cells were washed and counted 72 hours after the treatment. Cell proliferation was determined by a cellular adenosine triphosphate monitoring system. Cell proliferation was compared to control cells. The concentration inhibiting cell proliferation by 50% (IC50) was calculated.

U251 [7] = test: Analysis of BrdU incorporation (FACS); assay type: cell-based, human; details: U251, 24 hour-treatment
Experimental: as §1, §2

all glioma cell lines = test: Mode of action by Western blot analysis; assay type: cell-based; details: independently from the status of Rb pathway
Experimental: (§4) Treated cells were lysed by adding SDS sample buffer (0.125M Tris-HCl pH6.8, 5% SDS). Samples were heated to 95° C. for 5 minutes and then sonicated using an Ultrasonic 2000 ARTEK. Lysed cells were centrifuged at 13,000 RPM for 10 minutes. Protein quantification was determined using BCA buffer (Pierce) and a BSA standard curve. 20 μg protein extract per well were loaded and separated by SDS-PAGE gel 7.5-10% (PAGE-PLUS 40% concentrate AMRESCO). The gel was blotted onto nitrocellulose filters (Hybond Amersham) in a buffer containing 25 mM Tris HCl pH 8.3, 192 mM Glycine and 20% methanol. The filters were saturated in 5% low-fat milk in TBS containing 0.1% Tween 20 (TBS-T) for 2 hours at room temperature and than incubated overnight at 4° C. with the primary monoclonal followed by washes in TBS-T and incubation using a secondary anti mouse antibody. The bands were visualized using the “Super Signal West Pico” Pierce.

SF-539 cells = test: Mode of action by Western blot analysis; assay type: cell-based; details: SF-539 cells treated for 6 hours, 3 μM, FIG. 2
Experimental: as §4

U87MG [8] = test: Inhibition of cell proliferation (cellular ATP monitoring); assay type: cell-based; details: Homo sapiens, U-87 MG, 72 hours
Experimental: as §1, §3

SF295 [9] = test: as above; assay type: cell-based; details: Homo sapiens, SF-295; SF295, 72 hours
Experimental: as §1, §3

SF268 [10] = test: as above; assay type: cell-based; details: Homo sapiens, SF-268; SF268, 72 hours
Experimental: as §1, §3

U251 [11] = test: as above; assay type: cell-based; details: Homo sapiens, U-251; U251, 72 hours
Experimental: as §1, §3

SF539 [12] = test: as above; assay type: cell-based; details: Homo sapiens, SF-539; SF539, 72 hours
Experimental: as §1, §3

U251 cells [13] = test: Mode of action by Western blot analysis; assay type: cell-based, human; details: U251 cells treated for 24 hours, 1 and 3 μM, FIG. 1
Experimental: as §4

U251 [14] = test: Acridine orange staining to evaluate autophagy (FACS); assay type: cell-based, human; details: U251, 3 μM
Experimental: as §1
(§5) During the last 15 minutes of incubation, acridine orange (1 μg/ml) was added to the cells that were then collected, washed with PBS and analyzed by FACS for their fluorescence emission. Acridine orange moves freely to cross biological membranes but, when in the cytoplasm and nucleolus, fluoresces bright green and dim red; in the acidic vacuoles generated by autophagy appears bright red.

[15] = Radioactivity distribution in brain by autoradioluminography, plasma by LSC; assay type: in vivo, Sprague Dawley rats; details: 14C-labelled, single oral 20 mg/kg as maleate salt, rat
Experimental: Animals were sacrificed 2, 6 and 24 hours after administration (2 animals at each selected time) and the radioactivity distribution of compound-related material was evaluated in intact brain, after excision. The autoradioluminography method was used to evaluate the quantitative radioactivity distribution in the brain.
The radioactivity distribution was also evaluated in blood and plasma collected from the animals after sacrifice. The radioactivity levels in blood and plasma were determined by Liquid Scintillation Counting (LSC).

U87MG [16] = test: Acridine orange staining to evaluate autophagy (FACS); assay type: cell-based; details: 3 μM
Experimental: as §1, §5

SF295 [17] = test: as above; assay type: cell-based; details: SF295, 3 μM
Experimental: as §1, §5

SF268 [18] = test: as above; assay type: cell-based; details: SF268, 3 μM
Experimental: as §1, §5

SF539 [19] = test: as above; assay type: cell-based; details: SF539, 6 μM
Experimental: as §1, §5

[20] = Levels of compound in brain and plasma by LC/MS/MS; assay type: in vivo, Han Wistar rats; details: rat; for Brain levels: average
Experimental: The animals were sacrificed on day 6 at 2 and 6 hours after dosing. Brain and plasma were taken at the sacrifice time. Blood was put in heparinised plastic tubes, kept in ice-water bath, and then centrifuged (10 minutes, 1200 g at 4° C.). Brain and plasma samples were stored in a freezer at −80° C. until analysis. The levels of compound of formula (I) were analysed by LC/MS/MS.

[21] = system: all the tested glioma cells; test: Acridine orange staining to evaluate autophagy, summary over cell lines; assay type: cell-based
Experimental: as §1, §5

CNC(=O)c1nn(C)c2c1C(C)(C)Cc1cnc(Nc3ccc(N4CCN(C)CC4)cc3)nc1-2 [compound of formula (I), 8-[4-(4-methyl-piperazin-1-yl)-phenylamino]-1,4,4-trimethyl-4,5-dihydro-1H-pyrazolo[4,3-h]quinazoline-3-carboxylic acid methylamide]
increase in the survival time in comparison to vehicle-treated control mice (U251 cells [1]): 30% | Max tumor growth inhibition (%) (U251 human glioma cells; U251 subcutaneous xenograft, oral 40 mg/kg BID for 10 consecutive days): 80% | Toxicity (U251 human glioma cells; male, Balb Nu/Nu, mouse, in vivo, po, 40 mg/kg, 10 days): 0/8 | % BrdU inhib (U87MG [2]): 92% | % BrdU inhib (SF295 [3]): 74% | % BrdU inhib (SF268 [4]): 78% | % BrdU inhib (SF539 [5]): 39% | pIC50 [6]: 5.27 to 5.85 | % BrdU inhib (U251 [7]): 74% | cell cycle related markers (all glioma cell lines): decrease | phosphorylation of TRKA receptor (SF-539 cells): Inhibition | phosphorylation of downstream proteins, both in the MAPK and in AKT pathway (SF-539 cells): Inhibition | pIC50 (U87MG [8]): 5.80 | pIC50 (SF295 [9]): 5.27 | pIC50 (SF268 [10]): 5.60 | pIC50 (U251 [11]): 5.55 | pIC50 (SF539 [12]): 5.85 | Rb phosphorylation (U251 cells [13]): strong inhibition | cdc6 expression (U251 cells [13]): strong inhibition | cyclin A expression (U251 cells [13]): strong inhibition | cyclin B1 expression (U251 cells [13]): strong inhibition | Autophagy % (U251 [14]): 58 (3 μM) % | Brain (total radioactivity) ([15]; 2 h): 4.6 μg eq/g | Cerebellum (total radioactivity) ([15]; 2 h): 4.4 μg eq/g | Plasma (total radioactivity) ([15]; 2 h): 1.43 μg eq/g | Brain (total radioactivity) ([15]; 6 h): 1.4 μg eq/g | Cerebellum (total radioactivity) ([15]; 6 h): 1.5 μg eq/g | Plasma (total radioactivity) ([15]; 6 h): 0.89 μg eq/g | Brain (total radioactivity) ([15]; 24 h): 0.4 μg eq/g | Cerebellum (total radioactivity) ([15]; 24 h): 0.4 μg eq/g | Plasma (total radioactivity) ([15]; 24 h): 0.14 μg eq/g | Autophagy % (U87MG [16]): 50 (3 μM) % | Autophagy % (SF295 [17]): 68 (3 μM) % | Autophagy % (SF268 [18]): 70 (3 μM) % | Autophagy % (SF539 [19]): 35 (6 μM) % | Kp ([20]; Han Wistar, brain/plasma, oral 60 mg/kg for 6 days, assuming a density equal to 1, read-out: brain levels times higher than plasma levels): 6.1 to 9.6 | concentration at 2 h ([20]; Han Wistar, plasma, oral 60 mg/kg for 6 consecutive days, day 6, 2 hours post-dosing): 9.8 µM | concentration at 6 h ([20]; Han Wistar, plasma, oral 60 mg/kg for 6 consecutive days, day 6, 6 hours post-dosing): 8.4 µM | Brain levels ([20]; oral 60 mg/kg for 6 consecutive days, day 6, 2 hours post-dosing): 88.9 nmoles/gr of tissue | Brain levels ([20]; oral 60 mg/kg for 6 consecutive days, day 6, 6 hours post-dosing): 69.4 nmoles/gr of tissue | induce autophagy, % of the cells, range over cell lines [21]: 36-70%

— patent US8946226B2, “Use of CDK inhibitor for the treatment of glioma” (Nerviano Medical Sciences S.r.l., priority 2008, dated 2015)
